Results from US20220409576A1, “NANO-PARTICULATE COMPOSITIONS FOR STIMULATING HOST INNATE IMMUNE RESPONSES FOR THERAPEUTIC APPLICATIONS” (priority 2019, published 2022).

Tests used:
[1] = test system: intracellular S. aureus; experiment: Bactericidal activity of RAW 264.7 macrophages against intracellular S. aureus (antibiotic protection assay, viable colony number); assay type: cell-based, Staphylococcus aureus; details: cells with IONPs 3 mg/mL + VC 500 μM plus chelator BIP 500 μM or scavenger THI 200 mM, FIG. 3C
Procedure: A. The quantification of ROS generation in the RAW 264.7 cells treated with varying concentration of IONPs (0-3 mg/mL). B. The colony number of viable bacteria (S. aureus) in the lysed RAW 264.7 macrophages treated with varying concentration of IONPs (0-3 mg/mL) following the exposure of live S. aureus.
(A-B) The quantification of ROS generation (A) and viable colony number of S. aureus (B) in the RAW 264.7 cells treated with VC (500 μM) alone, IONP (3 mg/mL) alone, or IONP (3 mg/mL)+VC (500 μM). (C-D) The quantification of ROS generation (C) and viable colony number of S. aureus (D) in the RAW 264.7 cells treated with IONP (3 mg/mL) alone, or IONP (3 mg/mL)+H2O2 (100 μM). E. Representative images of surviving S. aureus colony on agar plates from lysed RAW264.7 macrophages treated with H2O2 (100 μM), IONP (3 mg/mL), or IONP+H2O2. N=3-5 per group, *p<0.05
A. The intracellular level of ferrous iron (Fe2+) in RAW 264.7 cells treated with IONPs (3 mg/mL) alone, IONPs with VC (500 μM), or IONPs with VC and BIP (iron chelator, 500 μM). […] The bactericidal activity of RAW 264.7 cells treated with IONPs (3 mg/mL) with VC (500 μM), IONPs with VC and BIP (500 μM), or IONPs with VC and TIH (200 mM), assessed by antibiotic protection assay. *p<0.05, N=3-5 per group. […]

[2] = test system: RAW 264.7 cells; experiment: Intracellular hydroxyl radical generation in RAW 264.7 cells; assay type: cell-based; details: RAW 264.7 cells with IONPs 3 mg/mL + VC 500 μM, BIP 500 μM, 24 h, FIG. 3B
Procedure: A. The intracellular level of ferrous iron (Fe2+) in RAW 264.7 cells treated with IONPs (3 mg/mL) alone, IONPs with VC (500 μM), or IONPs with VC and BIP (iron chelator, 500 μM). B. The intracellular level of hydroxyl radical concentration in RAW 264.7 cells treated with IONPs (3 mg/mL) alone, IONPs with VC (500 μM), or in combination with BIP (500 μM) for 24 h. C. The bactericidal activity of RAW 264.7 cells treated with IONPs (3 mg/mL) with VC (500 μM), IONPs with VC and BIP (500 μM), or IONPs with VC and TIH (200 mM), assessed by antibiotic protection assay. *p<0.05, N=3-5 per group.
To further determine if the VC-mediated ROS generation and bactericidal activity were associated with a Fenton reaction due to increased release of Fe^2+, the levels of Fe^2+ were compared between RAW 264.7 cells treated with IONPs alone and IONPs with VC. […] Among various forms of ROS, hydroxyl radical ([…]) is highly cytotoxic by causing oxidative damage to DNA and cell membrane. In the Fenton reaction-mediated generation of ROS, the oxidation of Fe^2+ by hydrogen peroxide (H2O2) produces highly reactive hydroxyl radical.

## c1ccc(-c2ccccn2)nc1 [BIP]
[1]
  IONPs/VC-induced bactericidal activity of RAW 264.7 cells: decrease in bactericidal activity
[2]
  IONPs and VC-induced generation of hydroxyl radicals: significantly decreased
